Test results published in the supplement of paper PMC11208160.

Assay: recombinant UMI read abundance after kanamycin selection (control-corrected) (log10(CPM+1)); higher = more efficient recombination; extreme values may be limits of the assay; sequences stand for … in AGTGCAGAGAAAATCGGCCAGTTTTCTCTGCCTGCAGTCCGCATGCCGTGGGACCCCTTGGGTTCTAACCTGTTGCCTAGATTTATGCAGCGGACTGCCTTTCTCCCAAAGTGATAAACCGG…AGGTTGGTTTCACT; site = the 11-nt donor
Procedure, shortened: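 Reported values are log10(CPM+1) from a pooled Escherichia coli screen of donor and donor-binding-loop pairs for the IS621 bridge recombinase. Selection used IPTG (0.07 mM) plus kanamycin, against unselected plating, each in two replicates. Recombinant UMIs were amplified across the donor–target junction, sequenced, converted to CPM, averaged over replicates and scaled by control-derived factors.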
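Also: IS621 bridge recombinase in Escherichia coli cells against a fixed T5 target plasmid.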

Sequence	recombinant UMI read abundance (log10)
CGATCGACATGGACCGGTTTTCCCGGTAATCCGTATTTGCT (site CGATCGACTAT)	0.0395
CGATCGACATGGACCGGTTTTCCCGGTAATCCGTATTTGTC (site CGATCGACTAA)	0.00466
CGATCGACATGGACCGGTTTTCCCGGTAATCCGTATTTGTC (site CGATCGACTCA)	0
CGATCGACATGGACCGGTTTTCCCGGTAATCCGTATTTGTC (site CGATCGACTGA)	1.08
CGATCGACATGGACCGGTTTTCCCGGTAATCCGTATTTGTC (site CGATCGACTTA)	0
CGATCGGCATGGACCGGTTTTCCCGGTAATCCGTATTTGAA (site CGATCGGCTTT)	1.25
CGATCGTCATGGACCGGTTTTCCCGGTAATCCGTATTTGTT (site CGATCGACTAA)	0.00634
CGATCGTCATGGACCGGTTTTCCCGGTAATCCGTATTTGTT (site CGATCGCCTAA)	0.0131
CGATCGTCATGGACCGGTTTTCCCGGTAATCCGTATTTGTT (site CGATCGGCTAA)	0.0205
CGATCGTCATGGACCGGTTTTCCCGGTAATCCGTATTTGTT (site CGATCGTCTAA)	1.25
CGATCTCCATGGACCGGTTTTCCCGGTAATCCGTATTTGCT (site CGATCTCCTAG)	0
CGATCTTCATGGACCGGTTTTCCCGGTAATCCGTATTTGTT (site CGATCATCTAG)	0
CGATCTTCATGGACCGGTTTTCCCGGTAATCCGTATTTGTT (site CGATCTTCTAA)	0.751
CGATGATCATGGACCGGTTTTCCCGGTAATCCGTATTTGCT (site CGATAATCTAG)	2.33
CGATGATCATGGACCGGTTTTCCCGGTAATCCGTATTTGCT (site CGATCATCTAG)	0.00821
CGATGATCATGGACCGGTTTTCCCGGTAATCCGTATTTGCT (site CGATGATCTAG)	2.46
CGATGATCATGGACCGGTTTTCCCGGTAATCCGTATTTGCT (site CGATTATCTAG)	0.958
CGATGGACATGGACCGGTTTTCCCGGTAATCCGTATTTGTT (site CGATAGACTAA)	1.25
CGATGGACATGGACCGGTTTTCCCGGTAATCCGTATTTGTT (site CGATCGACTAA)	0.00844
CGATGGACATGGACCGGTTTTCCCGGTAATCCGTATTTGTT (site CGATGGACTAA)	1.97
CGATGGACATGGACCGGTTTTCCCGGTAATCCGTATTTGTT (site CGATTGACTAA)	0.00606
CGATGGTCATGGACCGGTTTTCCCGGTAATCCGTATTTGCT (site CGATCATCTAG)	0
CGATGGTCATGGACCGGTTTTCCCGGTAATCCGTATTTGCT (site CGATGGTCTAG)	2.8

Sequence	recombinant UMI read abundance (log10)
CGATTGGCATGGACCGGTTTTCCCGGTAATCCGTATTTGCA (site CGATTGGCTTG)	2.02
CGCAATCCATGGACCGGTTTTCCCGGTAATCCGTATTTGTG (site CGCAATCCTCA)	0.631
CGCAATCCATGGACCGGTTTTCCCGGTAATCCGTATTTGTG (site CGGAATCCTAA)	0
CGCAATGCATGGACCGGTTTTCCCGGTAATCCGTATTTGTT (site CGCAATGCTAA)	2.14
CGCAATGCATGGACCGGTTTTCCCGGTAATCCGTATTTGTT (site CGGAATCCTAA)	0
CGCAGCACATGGACCGGTTTTCCCGGTAATCCGTATTTGAC (site CGCAGCACTGT)	2.95
CGCAGGCCATGGACCGGTTTTCCCGGTAATCCGTATTTGGG (site CGCAGGCCTCC)	0
CGCAGTACATGGACCGGTTTTCCCGGTAATCCGTATTTGCG (site CGCAGTACTCG)	0.962
CGCATACCATGGACCGGTTTTCCCGGTAATCCGTATTTGAC (site CGCATACCTGT)	0
CGCATAGCATGGACCGGTTTTCCCGGTAATCCGTATTTGTA (site CGCATAGCTTA)	2.51
CGCATTACATGGACCGGTTTTCCCGGTAATCCGTATTTGGC (site CGCATTACTGC)	1.28
CGCCCGGCATGGACCGGTTTTCCCGGTAATCCGTATTTGGT (site CGCCCGGCTAC)	1.31
CGCCCTCCATGGACCGGTTTTCCCGGTAATCCGTATTTGTT (site CGCCCTCCTAA)	1.24
CGCCGAACATGGACCGGTTTTCCCGGTAATCCGTATTTGCT (site CGCCGAACTAG)	2.15
CGCCGAACATGGACCGGTTTTCCCGGTAATCCGTATTTGCT (site CGCCGCACTAG)	0.0174
CGCCGAACATGGACCGGTTTTCCCGGTAATCCGTATTTGCT (site CGCCGGACTAG)	0.95
CGCCGAACATGGACCGGTTTTCCCGGTAATCCGTATTTGCT (site CGCCGTACTAG)	0.00823
CGCCGGGCATGGACCGGTTTTCCCGGTAATCCGTATTTGAC (site CGCCGGGCTGT)	1.46
CGCCGTACATGGACCGGTTTTCCCGGTAATCCGTATTTGAT (site CGCCGTACTAA)	0.00486
CGCCGTACATGGACCGGTTTTCCCGGTAATCCGTATTTGAT (site CGCCGTACTAC)	0.0168
CGCCGTACATGGACCGGTTTTCCCGGTAATCCGTATTTGAT (site CGCCGTACTAG)	0
CGCCGTACATGGACCGGTTTTCCCGGTAATCCGTATTTGAT (site CGCCGTACTAT)	1.37
CGCCGTACATGGACCGGTTTTCCCGGTAATCCGTATTTGCC (site CGCCGTACTAG)	0.256

Sequence	recombinant UMI read abundance (log10)
CGCCGTACATGGACCGGTTTTCCCGGTAATCCGTATTTGCC (site CGCCGTACTCG)	0.114
CGCCGTACATGGACCGGTTTTCCCGGTAATCCGTATTTGCC (site CGCCGTACTGG)	1.55
CGCCGTACATGGACCGGTTTTCCCGGTAATCCGTATTTGCC (site CGCCGTACTTG)	0.384
CGCCGTCCATGGACCGGTTTTCCCGGTAATCCGTATTTGCT (site CGCCGTACTAG)	0.0123
CGCCGTCCATGGACCGGTTTTCCCGGTAATCCGTATTTGCT (site CGCCGTCCTAG)	0.666
CGCCGTCCATGGACCGGTTTTCCCGGTAATCCGTATTTGCT (site CGCCGTGCTAG)	0
CGCCGTCCATGGACCGGTTTTCCCGGTAATCCGTATTTGCT (site CGCCGTTCTAG)	0.012
CGCCTAGCATGGACCGGTTTTCCCGGTAATCCGTATTTGTC (site TTGAATACTAG)	0
CGCCTATCATGGACCGGTTTTCCCGGTAATCCGTATTTGGC (site CGCCTATCTGC)	1.93
CGCCTTACATGGACCGGTTTTCCCGGTAATCCGTATTTGCT (site CGCCATACTAG)	0.00361
CGCCTTACATGGACCGGTTTTCCCGGTAATCCGTATTTGCT (site CGCCCTACTAG)	0.675
CGCCTTACATGGACCGGTTTTCCCGGTAATCCGTATTTGCT (site CGCCGTACTAG)	0
CGCCTTACATGGACCGGTTTTCCCGGTAATCCGTATTTGCT (site CGCCTTACTAG)	1.57
CGCCTTTCATGGACCGGTTTTCCCGGTAATCCGTATTTGAC (site AGCCTTTCTGT)	0
CGCCTTTCATGGACCGGTTTTCCCGGTAATCCGTATTTGAC (site CGCCTTTCTGT)	0
CGCCTTTCATGGACCGGTTTTCCCGGTAATCCGTATTTGAC (site GGCCTTTCTGT)	0
CGCCTTTCATGGACCGGTTTTCCCGGTAATCCGTATTTGAC (site TGCCTTTCTGT)	0
CGCGAGCCATGGACCGGTTTTCCCGGTAATCCGTATTTGGA (site CGCGAGCCTTC)	0.181
CGCGCTCCATGGACCGGTTTTCCCGGTAATCCGTATTTGTC (site CGCGCTCCTGA)	1.94
CGCGGACCATGGACCGGTTTTCCCGGTAATCCGTATTTGGG (site CGAGGACCTCC)	0.0232
CGCGGACCATGGACCGGTTTTCCCGGTAATCCGTATTTGGG (site CGCGGACCTCC)	0
CGCGGACCATGGACCGGTTTTCCCGGTAATCCGTATTTGGG (site CGGGGACCTCC)	0.0209
